From ChEMBL document CHEMBL1201862, “PubChem BioAssay data set” (2004)
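Five compound concentrations were applied to cells in 96-well plates for 48 hours; endpoints were derived by simple linear interpolation of the resulting dose-response curve. The concentration for 50% growth inhibition is given as GI50.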 Calls of active or inactive are those of the source. Rule as the data show it: active = GI50 up to about 1.1 µM and inactive = higher.

How the values were obtained:
Assay in all cases: NCI-60 cell line screen, 48 h
NCI/ADR-RES = system: NCI/ADR-RES
SNB-19 = system: SNB-19
HCT-15 = system: HCT-15
CAKI-1 = system: CAKI-1
IGROV-1 = system: IGROV-1
SK-MEL-5 = system: SK-MEL-5
Malme-3M = system: Malme-3M
NCI-H23 = system: NCI-H23
MDA-MB-231 = system: MDA-MB-231
UACC-62 = system: UACC-62
SNB-75 = system: SNB-75
TK-10 = system: TK-10
ACHN = system: ACHN
A498 = system: A498
T47D = system: T47D
MDA-N = system: MDA-N
SN12C = system: SN12C
MDA-MB-435 = system: MDA-MB-435
HCT-116 = system: HCT-116
EKVX = system: EKVX

Compound	GI50 (NCI/ADR-RES)	GI50 (SNB-19)	GI50 (HCT-15)	GI50 (CAKI-1)	GI50 (IGROV-1)	GI50 (SK-MEL-5)	GI50 (Malme-3M)	GI50 (NCI-H23)	GI50 (MDA-MB-231)	GI50 (UACC-62)	GI50 (SNB-75)	GI50 (TK-10)	GI50 (ACHN)	GI50 (A498)	GI50 (T47D)	GI50 (MDA-N)	GI50 (SN12C)	GI50 (MDA-MB-435)	GI50 (HCT-116)	GI50 (EKVX)
CN1C(=O)C(=CNc2ccccc2[N+](=O)[O-])C(=O)N(C)C1=O	> 100 µM (inactive)	> 100 µM (inactive)	> 100 µM	> 100 µM (inactive)	> 100 µM (inactive)	> 100 µM (inactive)	> 100 µM (inactive)	> 100 µM (inactive)	> 100 µM (inactive)	> 100 µM (inactive)	> 100 µM (inactive)	> 100 µM (inactive)	> 100 µM (inactive)	> 100 µM (inactive)	> 100 µM (inactive)	> 100 µM (inactive)	> 100 µM (inactive)	> 100 µM (inactive)	> 100 µM (inactive)	> 100 µM (inactive)
COc1cc2c(cc1OC)-c1cc3cc(OC)c(OC)cc3c(=O)n1CC2	21.7 µM (inactive)	20.7 µM (inactive)	38.5 µM	4.93 µM (inactive)	4.91 µM (inactive)	4.41 µM (inactive)	8.04 µM (inactive)	46.5 µM (inactive)	14.8 µM (inactive)	5.35 µM (inactive)	9.4 µM (inactive)	8.07 µM (inactive)	14.4 µM (inactive)	7.59 µM (inactive)	2.58 µM (inactive)	67.9 µM (inactive)	14.6 µM (inactive)	31.6 µM (inactive)	16.3 µM (inactive)	28.8 µM (inactive)
O=C(O)CNC(=O)c1ccc([As](=O)(O)O)cc1	> 100 µM (inactive)	> 100 µM (inactive)	> 100 µM	> 100 µM (inactive)	> 100 µM (inactive)	> 100 µM (inactive)	> 100 µM (inactive)	> 100 µM (inactive)	> 100 µM (inactive)	> 100 µM (inactive)	> 100 µM (inactive)	> 100 µM (inactive)	> 100 µM (inactive)	> 100 µM (inactive)	> 100 µM (inactive)	> 100 µM (inactive)	> 100 µM (inactive)	> 100 µM (inactive)	> 100 µM (inactive)	> 100 µM (inactive)
COc1ccc(/C=C/c2nccc3ccccc23)cc1OC	9.38 µM (inactive)	> 10 µM (inactive)	> 10 µM	> 10 µM (inactive)	> 10 µM (inactive)	6.21 µM (inactive)	> 10 µM (inactive)	7.21 µM (inactive)	2.77 µM (inactive)	> 10 µM (inactive)	> 10 µM (inactive)	> 10 µM (inactive)	> 10 µM (inactive)	9.73 µM (inactive)	> 10 µM (inactive)	> 10 µM (inactive)	9.48 µM (inactive)	6.64 µM (inactive)	5.9 µM (inactive)	> 10 µM (inactive)
CC1OC23CCCCC2C(C#N)(C#N)C1(C#N)C(=N)O3 (stereo not given)	37.4 µM (inactive)	22.8 µM (inactive)	15.3 µM	6.9 µM (inactive)	19.6 µM (inactive)	16.3 µM (inactive)	20.4 µM (inactive)	21 µM (inactive)	15.7 µM (inactive)	> 10 µM (inactive)	38.3 µM (inactive)	22.5 µM (inactive)	19.9 µM (inactive)	27.2 µM (inactive)	18.7 µM (inactive)	18.4 µM (inactive)	15.3 µM (inactive)	20.8 µM (inactive)	16.6 µM (inactive)	28.6 µM (inactive)
CCOC1OC(CO)C(O)CC1n1ccc(=O)[nH]c1=O (stereo not given)	> 100 µM (inactive)	> 100 µM (inactive)	> 100 µM	> 100 µM (inactive)	> 100 µM (inactive)	> 100 µM (inactive)	> 100 µM (inactive)	> 100 µM (inactive)	> 100 µM (inactive)	> 100 µM (inactive)	> 100 µM (inactive)	> 100 µM (inactive)	> 100 µM (inactive)	> 100 µM (inactive)	> 100 µM (inactive)	> 100 µM (inactive)	> 100 µM (inactive)	> 100 µM (inactive)	> 100 µM (inactive)	> 100 µM (inactive)
COC(=O)NC(Nc1ccc(C)cc1)(C(F)(F)F)C(F)(F)F	> 100 µM (inactive)	> 100 µM (inactive)	> 100 µM	> 100 µM (inactive)	> 100 µM (inactive)	> 100 µM (inactive)	> 100 µM (inactive)	> 100 µM (inactive)	> 100 µM (inactive)	> 100 µM (inactive)	> 100 µM (inactive)	> 100 µM (inactive)	> 100 µM (inactive)	> 100 µM (inactive)	> 100 µM (inactive)	> 100 µM (inactive)	> 100 µM (inactive)	> 100 µM (inactive)	> 100 µM (inactive)	> 100 µM (inactive)
Cn1c(=O)n2n(c1=O)C1C(=CC2)C2C=CC1n1c(=O)n(C)c(=O)n12 (stereo not given)	> 100 µM (inactive)	> 100 µM (inactive)	> 100 µM	> 100 µM (inactive)	> 100 µM (inactive)	> 100 µM (inactive)	> 100 µM (inactive)	> 100 µM (inactive)	> 100 µM (inactive)	> 100 µM (inactive)	> 100 µM (inactive)	> 100 µM (inactive)	> 100 µM (inactive)	> 100 µM (inactive)	> 100 µM (inactive)	> 100 µM (inactive)	> 100 µM (inactive)	> 100 µM (inactive)	> 100 µM (inactive)	> 100 µM (inactive)
N=C(N)c1ccc(/N=N\c2c(O)ccc3c2[nH]c2ccccc23)cc1	58.1 µM (inactive)	2.47 µM (inactive)	39.1 µM	> 50.8 µM (inactive)	49.8 µM (inactive)	37.8 µM (inactive)	> 47.3 µM (inactive)	10.2 µM (inactive)	2.09 µM (inactive)	54.2 µM (inactive)	8.38 µM (inactive)	45.5 µM (inactive)	41.6 µM (inactive)	77.3 µM (inactive)	2.43 µM (inactive)	6.3 µM (inactive)	16.4 µM (inactive)	3.39 µM (inactive)	3.31 µM (inactive)	> 59.6 µM (inactive)
O/N=C1\CCc2cc3c(cc21)CCC3	> 100 µM (inactive)	> 100 µM (inactive)	> 100 µM	> 100 µM (inactive)	> 100 µM (inactive)	> 100 µM (inactive)	> 100 µM (inactive)	> 100 µM (inactive)	> 100 µM (inactive)	> 100 µM (inactive)	44.3 µM (inactive)	> 100 µM (inactive)	> 100 µM (inactive)	> 100 µM (inactive)	86.3 µM (inactive)	> 100 µM (inactive)	> 100 µM (inactive)	> 100 µM (inactive)	> 100 µM (inactive)	5.65 µM (inactive)
O=C1C(Cl)C(c2cc3cc(Br)ccc3nc2Cl)N1c1ccc(F)c(Cl)c1 (stereo not given)	5.57 µM (inactive)	9.73 µM (inactive)	6.44 µM	0.857 µM (active)	0.957 µM (active)	9.02 µM (inactive)	11 µM (inactive)	3.83 µM (inactive)	8.09 µM (inactive)	9.12 µM (inactive)	8.61 µM (inactive)	6.32 µM (inactive)	8.53 µM (inactive)	5.61 µM (inactive)	8.09 µM (inactive)	7.03 µM (inactive)	7.73 µM (inactive)	5.64 µM (inactive)	7.94 µM (inactive)	1.42 µM (inactive)
CC(C)(O)C1OCC(C2CCC3(C)C4=CCC5C(C)(C)C(O)CCC5(C)C4CCC23C)CC1O (stereo not given)	12.6 µM (inactive)	16.4 µM (inactive)	14.8 µM	16 µM (inactive)	17.3 µM (inactive)	14.7 µM (inactive)	18.5 µM (inactive)	23.2 µM (inactive)	15.3 µM (inactive)	14.9 µM (inactive)	16.9 µM (inactive)	13.2 µM (inactive)	15.3 µM (inactive)	16.7 µM (inactive)	13.7 µM (inactive)	16.6 µM (inactive)	14.4 µM (inactive)	15.5 µM (inactive)	14.5 µM (inactive)	17.2 µM (inactive)
C=CCN(c1cc(OC)c2[nH]cc(C)c2c1[N+](=O)[O-])S(C)(=O)=O	> 100 µM (inactive)	> 100 µM (inactive)	> 100 µM	2.55 µM (inactive)	> 100 µM (inactive)	> 100 µM (inactive)	> 100 µM (inactive)	> 100 µM (inactive)	> 100 µM (inactive)	> 100 µM (inactive)	> 100 µM (inactive)	> 100 µM (inactive)	> 100 µM (inactive)	> 100 µM (inactive)	> 100 µM (inactive)	> 100 µM (inactive)	> 100 µM (inactive)	> 100 µM (inactive)	> 100 µM (inactive)	> 100 µM (inactive)
O=C(O)CO/N=C1/C(=C2/C(=O)Nc3ccccc32)Nc2ccccc21	> 100 µM (inactive)	> 100 µM (inactive)	35.6 µM	25.8 µM (inactive)	22.9 µM (inactive)	24.1 µM (inactive)	30.5 µM (inactive)	31.6 µM (inactive)	62.8 µM (inactive)	38.4 µM (inactive)	27 µM (inactive)	> 100 µM (inactive)	> 100 µM (inactive)	61.8 µM (inactive)	35.8 µM (inactive)	50.9 µM (inactive)	88.3 µM (inactive)	37.9 µM (inactive)	39.6 µM (inactive)	24.9 µM (inactive)
